# Results: patent publication US10028992B2, “Methods of treating muscular dystrophy” (BOARD OF REGENTS OF THE NEVADA SYSTEM OF HIGHER EDUCATION …, priority 2012, dated 2018)
# Test system: α7 integrin promoter
# Experiment: muscle cell-based assay: α7βgal+/− myoblasts/myotubes, LacZ reporter, β-galactosidase cleavage of FDG
# Design: species or system mouse; Results in α7+/− β-galactosidase assay: scale not given here
# Conditions: for Results in a α7+/− β-galactosidase assay, Myotubes, 0.5 uM: compound at 0.5 uM; for Results in a α7+/− β-galactosidase assay, Myotubes, 1 uM: compound at 1 uM; for Results in a α7+/− β-galactosidase assay, Myotubes, 5 uM: compound at 5 uM; for Results in a α7+/− β-galactosidase assay, Myotubes, 10 uM: compound at 10 uM; for Results in a α7+/− β-galactosidase assay, Myotubes, 20 uM: compound at 20 uM; for Results in a α7+/− β-galactosidase assay, Myotubes, 40 uM: compound at 40 uM; for Results in α7+/− β-galactosidase assay / Result in α7+/− β-galactosidase assay: Myoblasts; for EC50: given as log AC50 (negative values), read-out: Fit LogAC50 (converted); for Fit Curve Class: key not given; for AC50: read-out: Fit Log AC50 (converted)
# Summary of the method: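 Primary α7βgal+/− mouse myoblasts (LacZ knocked into α7 integrin exon 1, promoter retained), differentiated; promoter activity read as β-galactosidase conversion of non-fluorescent FDG to fluorescein. Hits followed by dose-response, western analysis and myostatin counterscreen.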
# [1] = curve fit, activity at zero concentration
# [2] = Table 12, fitted activity at zero concentration
# [3] = Table 12 Compound data, concentration-response curve fit
# [4] = Mus musculus, Table 12, log of AC50, given with negative sign, unit of AC50 not given
Compound,"Results in a α7+/− β-galactosidase assay, Myotubes, 0.5 uM","Results in a α7+/− β-galactosidase assay, Myotubes, 1 uM","Results in a α7+/− β-galactosidase assay, Myotubes, 5 uM","Results in a α7+/− β-galactosidase assay, Myotubes, 10 uM","Results in a α7+/− β-galactosidase assay, Myotubes, 20 uM","Results in a α7+/− β-galactosidase assay, Myotubes, 40 uM",Results in α7+/− β-galactosidase assay (0.5 uM),Results in α7+/− β-galactosidase assay (1 uM),Results in α7+/− β-galactosidase assay (5 uM),Results in α7+/− β-galactosidase assay (10 uM),Results in α7+/− β-galactosidase assay (20 uM),Results in α7+/− β-galactosidase assay (40 uM),also measured
COC(=O)c1ccc(/N=N/c2ccccc2)cc1 [drawing 405],−0.111,0.1978,−0.1462,−0.2093,−0.1861,−0.2357,,,,,,,
COc1ccccc1C(=O)OCc1ccc2sc(C)nc2c1 [drawing 586],,,,,,,0.191,−0.07182,0.1329,0.00833,0.1184,0.01583,
CCCN(C(=O)c1ccc(S(=O)(=O)N2CCCC2)cc1)C1CCS(=O)(=O)C1 (centres unmarked) [drawing 352],−0.1044,−0.1728,−0.01555,0.1537,−0.08104,−0.06466,,,,,,,
Cc1cc(C)c(/C=C2\C(=O)Nc3ccccc32)[nH]1 [drawing 718],,,,,,,,,,,,,Result in α7+/− β-galactosidase assay (0.5 uM): 0.03555; Result in α7+/− β-galactosidase assay (1 uM): 0.05336; Result in α7+/− β-galactosidase assay (5 uM): −0.2683; Result in α7+/− β-galactosidase assay (10 uM): −0.3603; Result in α7+/− β-galactosidase assay (20 uM): −0.2204; Result in α7+/− β-galactosidase assay (40 uM): −0.3534
O=C(CNC(=O)c1cccc(F)c1)N/N=C/c1cc(Br)ccc1OCc1ccccc1 [drawing 311],−0.0152,0.1201,0.07121,0.000591,−0.3123,−0.2936,,,,,,,
Cn1c(-c2ccccc2)cc2ccccc21 [drawing 419],−0.1946,−0.1516,0.03646,0.2623,−0.2495,−0.1512,,,,,,,
Cc1nc(/C=C2\C(=O)Nc3ccccc32)c[nH]1 [drawing 688],,,,,,,0.0102,0.003171,0.1245,−0.03494,0.1171,0.02067,
O=C(Nc1ccccc1OC(=O)c1ccc(Cl)cc1)c1ccc(Cl)cc1 [drawing 401],−0.03464,0.02857,−0.09525,−0.1056,−0.1495,−0.3841,,,,,,,
COCCN1C=C(C(=O)OC)C(c2ccccc2Cl)C(C(=O)OC)=C1 [Compound 123],,,,,,,,,,,,,EC50 (Mus musculus): 8.91 µM; Score (Table 12 compound data): 43; Fit Curve Class (curve class number): 2.1; Fit HillSlope (curve fit): 1.3443; Fit Zero Activity [%] [1]: 3.9836%
Cc1c(C(=O)O)cccc1-n1c(C)cc(/C=N/Nc2ccc([N+](=O)[O-])cn2)c1C [Compound 9],,,,,,,,,,,,,"Max Response [%]: 88.6572%; Activity at 0.307 μM [%] ** (0.307 μM): −24.4743%; Activity at 1.530 μM [%] ** (1.530 μM): 6.2893%; Activity at 7.660 μM [%] ** (7.660 μM): 68.0567%; Activity at 38.30 μM [%] ** (38.30 μM): 88.6572%; Fit HillSlope (Table 12, curve fit): 1.3723; Fit Infinite Activity [%] (Table 12, fitted activity at infinite concentration): 92.2022%; Fit Zero Activity [%] [2]: −30.5005%; Fit Curve Class (Table 12): 1.1; Fit Log AC50 (Table 12, log of AC50, given with negative sign, unit of AC50 not given): −5.55; Score [3]: 85"
Cn1cc(CN2CCC(C(=O)Nc3cccc(-c4cscn4)c3)CC2)cn1 [drawing 494],−0.07662,0.03293,−0.2802,0.1352,−0.1701,0.00319,,,,,,,
Cc1cc([N+](=O)[O-])ccc1NC(=O)C(C)N1CCN(c2ccccn2)CC1 (centres unmarked) [drawing 601],,,,,,,0.08805,0.0582,−0.01841,−0.03065,−0.0419,−0.274,
CCN(CC(=O)NCc1cccs1)C(=O)COc1ccc(C(N)=O)cc1 [drawing 354],0.06872,−0.07237,0.09763,0.2952,−0.2218,−0.02391,,,,,,,
COc1c(Cl)cc(/C=C2\C(=O)Nc3ccccc32)cc1Cl [drawing 505],−0.1548,−0.1313,−0.4088,−0.5935,−0.3163,−0.3432,,,,,,,
Fc1ccc(-c2ccnn2-c2ccccc2)cc1 [Compound 107],,,,,,,,,,,,,"AC50 [4]: 4.47 µM; Fit HillSlope (Table 12, curve fit): 1.4781; Fit Zero Activity [%] [2]: −19.2206%; Fit Curve Class (Table 12): 2.1; Score [3]: 43"
CC(C)(C)N/C=C(\C#N)S(=O)(=O)c1ccc(Br)cc1 [Compound 173],,,,,,,,,,,,,EC50 (Mus musculus): 11.2 µM; Score (Table 12 compound data): 42; Fit Curve Class (curve class number): 2.2; Fit HillSlope (curve fit): 0.9; Fit Zero Activity [%] [1]: 7.5952%
CN(C)S(=O)(=O)c1cccc(C(=O)Nc2ccc3c(c2)CCC3)c1 [Compound 8],,,,,,,,,,,,,"AC50 [4]: 2.82 µM; Emax (Mus musculus, read-out: Max Response [%]): 94.3%; Fit HillSlope (Table 12, curve fit): 4.9549; Fit Zero Activity [%] [2]: −15.6523%; Fit Curve Class (Table 12): 1.1; Score [3]: 85"
CCCCN1CC(=O)N2Cc3[nH]c4ccccc4c3C[C@H]2C1=O [drawing 478],−0.1229,−0.1432,−0.3665,−0.4899,−0.2121,−0.2272,,,,,,,
COCCSc1ccccc1C(=O)Nc1cc(C)cc(C)c1 [drawing 595],,,,,,,−0.06029,−0.1236,0.04359,0.2482,−0.09845,−0.1003,
CC1(C)Cc2ccccc2-c2nc3n(c(=O)c21)CCS3 [drawing 588],,,,,,,0.2141,0.0159,0.02034,0.02377,−0.2051,−0.4207,
COc1ccc(NC(=O)C2(N(C(=O)Cn3nnnc3N)c3ccc(OC)cc3)CCCCC2)cc1 [drawing 324],0.05381,0.1378,0.2107,−0.07457,−0.3633,−0.2285,,,,,,,
COc1ccc(CN2CCNC(=O)C2CC(=O)NCCc2c[nH]c3ccccc23)c(OC)c1 (centres unmarked) [drawing 692],,,,,,,0.0135,0.04793,0.2102,−0.04499,−0.02608,−0.01274,
COc1ccccc1NS(=O)(=O)c1cc(NC(=O)c2ccc(Cl)nc2)ccc1N1CCCC1 [drawing 358],0.1418,0.2243,0.0609,0.2352,−0.07572,−0.1492,,,,,,,
CC1(C)Cc2c(c(N3CCOCC3)nc3sc(C(=O)Nc4ccccc4)c(N)c23)CO1 [drawing 330],0.2661,0.1201,−0.3453,−0.3697,0.0827,−0.164,,,,,,,
O=C1Nc2ccccc2/C1=C\c1ccnc2ccccc12 [drawing 526],,,,,,,0.2132,0.0742,0.06287,0.1705,−0.2337,−0.1575,
COc1ccc(OC)c(NC(=O)CN2CCC(NC(=O)c3ccccc3C)CC2)c1 [drawing 574],,,,,,,0.0132,0.06975,0.04855,−0.0931,0.06823,0.04785,
